Assay results reported in US6310095A, “Inhibitors of protein isoprenyl transferases” (University of Pittsburgh, priority 1998, dated 2001).
Structures can show the parent of a compound that is named as a salt.

biological target: T1, protein farnesyltransferase (Rattus norvegicus, UniProt Q02293+Q04631); assay: in vitro inhibition of protein farnesyltransferase (scintillation proximity assay, biotin-K Ras B fragment); assay type: biochemical; conditions: at 1 × 10^-6 M
T1 construct: Rat brain protein farnesyltransferase activity is measured; from tissue; host or cells: rat brain; purified according to Reiss et al., Cell 62:81-88 (1990), steps one through three
Summary of the method: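 Rat brain enzyme, purified through three steps, in a scintillation proximity assay kit with biotin-K Ras B fragment substrate at 0.1 mM final. Value is % inhibition of farnesylation.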

Row | SMILES | % inhibition of farnesyltransferase
1 | CSCC[C@H](NC(=O)c1cc(Cc2ccccc2)c(COCc2ccccc2)cc1-c1ccccc1C)C(=O)O [Example 923] | 78%
2 | CSCC[C@H](NC(=O)c1cc(Cc2ccccc2)c(COCc2ccco2)cc1-c1ccccc1C)C(=O)O [Example 924] | 77%
3 | CSCC[C@H](NC(=O)c1cc(Cc2ccccc2)c(COCCCc2ccccc2)cc1-c1ccccc1C)C(=O)O [Example 925] | 87%
4 | COc1ccc(CCOCc2ccc(C(=O)N[C@@H](CCSC)C(=O)O)c(-c3ccccc3C)c2)cc1 [Example 937] | 95%

same assay, conditions: at 1 × 10^-6 M; read-out: % inhibition of farnesyltransferase

Row | SMILES | inhibition at 1 µM
5 | CSCC[C@H](NC(=O)c1ccc(NC(=O)OCc2cncs2)cc1-c1ccccc1C)C(=O)O [Example 902, N-[4-N-(thiazol-5-ylmethoxycarbonyl)amino-2-(2-methylphenylbenzoyl]methioninelithium salt] | 85%
6 | CSCC[C@H](NC(=O)c1ccc(CN(CC(C)C)C(CC2CCCCC2)CC2CCCCC2)cc1-c1ccccc1C)C(=O)O [Example 908] | 88%
7 | CSCC[C@H](NC(=O)c1ccc(CN(C(=O)c2ccccc2)C(CC2CCCCC2)CC2CCCCC2)cc1-c1ccccc1C)C(=O)O [Example 910, N-[4-(N-benzoyl-N-(1,3-Dicyclohexylpropan-2-yl)aminomethyl)-2-(2-methylphenyl)-benzoyl]methionine] | 42%
8 | CSCC[C@H](NC(=O)c1ccc(CN(C(CC2CCCCC2)CC2CCCCC2)S(=O)(=O)c2ccccc2)cc1-c1ccccc1C)C(=O)O [Example 911, N-[4-(N-Benzenesulfoyl-N-(1,3-Dicyclohexylpropan-2-yl)aminomethyl)-2-(2-methylphenyl)-benzoyl]methionine] | 65%
9 | CSCC[C@H](NC(=O)c1ccc(CNCc2ccccc2)cc1-c1ccccc1)C(=O)O [Example 936, N-[4-(N-benzylaminomethyl)-2-phenylbenzoyl]methionine hydrochloride salt] | 69%

same assay, conditions: at 1 × 10^-7 M

Row | SMILES | % inhibition of farnesyltransferase
10 | CSCC[C@H](NC(=O)c1ccc(COCc2cnc(-c3ccc(F)cc3)s2)cc1-c1ccccc1C)C(=O)O [Example 900] | 95%
11 | CCCC(CCC)NOCc1ccc(C(=O)N[C@@H](CCSC)C(=O)O)c(-c2ccccc2C)c1 [Example 929] | 81%
12 | COc1ccccc1COCc1ccc(C(=O)N[C@@H](CCSC)C(=O)[O-])c(-c2ccccc2C)c1.[Li+] [Example 931] | 98%
13 | CSCC[C@H](NC(=O)c1ccc(COCc2ccc(Cl)cc2)cc1-c1ccccc1C)C(=O)[O-].[Li+] [Example 933] | 91%
14 | COc1ccc(COCc2ccc(C(=O)N[C@@H](CCSC)C(=O)[O-])c(-c3ccccc3C)c2)cc1.[Li+] [Example 935] | 72%
15 | CSCC[C@H](NC(=O)c1ccc(COCc2ccc(C(C)C)cc2)cc1-c1ccccc1C)C(=O)[O-].[Li+] [Example 940] | 92%
16 | CSCC[C@H](NC(=O)c1ccc(COCc2cccc(N(C)C)c2)cc1-c1ccccc1C)C(=O)O [Example 941] | 90%
17 | CCSCC(CC1CCCCC1)N(Cc1ccc(C(=O)N[C@@H](CCSC)C(=O)O)c(-c2ccccc2C)c1)CC(C)C (stereo partly drawn) [Example 945, N-[4-N-(3-Cyclohexyl-1-ethylthiopropan-2-yl)-N-isobutylaminomethyl-2-(2-methylphenyl)benzoyl]-methionine] | 80%

same assay, conditions: at 1 × 10^-7 M; read-out: % inhibition of farnesyltransferase

Row | SMILES | inhibition at 0.1 µM
18 | CCSC[C@H](CC(C)C)N(C)Cc1ccc(C(=O)N[C@@H](CCSC)C(=O)O)c(-c2ccccc2C)c1 [Example 906, N-[4-(N-(1-ethylthio-4-methylpentan-2-yl)-N-methylaminomethyl)-2-(2-methylphenyl)benzoyl]-methionine] | 88%
19 | CCCCN(CCCC)C(=O)CNCc1ccc(C(=O)N[C@@H](CCSC)C(=O)O)c(-c2ccccc2C)c1 [Example 912, N-[4-(N-(N,N-dibutylacetamido)aminomethyl)-2-(2-methylphenyl)benzoyl]methionine] | 85%
20 | CCCCN(CCCC)C(=O)CN(C)Cc1ccc(C(=O)N[C@@H](CCSC)C(=O)O)c(-c2ccccc2C)c1 [Example 913, N-[4-(N-(N,N-dibutylacetamido)-N-methylaminomethyl)-2-(2-methylphenyl)benzoyl]methionine] | 89%
21 | CSCC[C@H](NC(=O)c1ccc(CNCC(=O)N(Cc2ccccc2)Cc2ccccc2)cc1-c1ccccc1C)C(=O)O [Example 914, N-[4-(N-(N,N-dibenzylacetamido)aminomethyl)-2-(2-methylphenyl)benzoyl]methionine] | 91%
22 | CCCCN(CCCC)Cc1ccc(C(=O)N[C@@H](CCSC)C(=O)O)c(-c2ccccc2C)c1 [Example 917, N-[4-(N,N-Dibutylaminomethyl)-2-(2-methylphenyl)benzoyl]methionine] | 78%
23 | CCSC[C@H](CC1CCCCC1)N(Cc1ccc(C(=O)N[C@@H](CCSC)C(=O)O)c(-c2ccccc2C)c1)C(C)=O [Example 947, N-[4-N-acetyl-N-(3-Cyclohexyl-1-ethylthiopropan-2-yl)aminomethyl-2-(2-methylphenyl)-benzoyl]methionine] | 79%
24 | CCSC[C@H](CC1CCCCC1)N(Cc1ccc(C(=O)N[C@@H](CCSC)C(=O)O)c(-c2ccccc2C)c1)C(=O)OC(C)(C)C [Example 948, N-[4-N-t-Butyloxycarbonyl-N-(3-cyclohexyl-1-ethylthiopropan-2-yl)aminomethyl-2-(2-methylphenyl)benzoyl]methionine] | 75%
25 | CCSC[C@H](CC1CCCCC1)N(Cc1ccc(C(=O)N[C@@H](CCSC)C(=O)O)c(-c2ccccc2C)c1)C(=O)c1ccccc1 [Example 949, N-[4-N-Benzoyl-N-(3-Cyclohexyl-1-ethylthiopropan-2-yl)aminomethyl-2-(2-methylphenyl)-benzoyl]methionine] | 57%

same assay, conditions: at 1 × 10^-8 M

Row | SMILES | % inhibition of farnesyltransferase
26 | CSCC[C@H](NC(=O)c1ccc(COCc2cnc(-c3ccc(Cl)cc3)s2)cc1-c1ccccc1C)C(=O)[O-].[Li+] [Example 901] | 84%
27 | CSCC[C@H](NC(=O)c1ccc(COCc2cc(-c3ccc(Cl)cc3)co2)cc1-c1ccccc1C)C(=O)[O-].[Li+] [Example 904] | 85%
28 | CSCC[C@H](NC(=O)c1ccc(COCc2ccccc2Cl)cc1-c1ccccc1C)C(=O)[O-].[Li+] [Example 930] | 66%
29 | COc1cccc(COCc2ccc(C(=O)N[C@@H](CCSC)C(=O)[O-])c(-c3ccccc3C)c2)c1.[Li+] [Example 932] | 60%
30 | CSCC[C@H](NC(=O)c1ccc(COCc2cccc(Cl)c2)cc1-c1ccccc1C)C(=O)[O-].[Li+] [Example 934] | 71%
31 | CSCC[C@H](NC(=O)c1ccc(COCc2ccccc2C(C)C)cc1-c1ccccc1C)C(=O)[O-].[Li+] [Example 938] | 61%
32 | CSCC[C@H](NC(=O)c1ccc(COCc2cccc(C(C)C)c2)cc1-c1ccccc1C)C(=O)[O-].[Li+] [Example 939] | 72%
33 | CCCCC(CCCC)OCc1ccc(C(=O)N[C@@H](CCSC)C(=O)[O-])c(-c2ccccc2C)c1.[Li+] [Example 942] | 58%
34 | CCCCC(Cc1ccccc1Cl)OCc1ccc(C(=O)N[C@@H](CCSC)C(=O)O)c(-c2ccccc2C)c1 (stereo partly drawn) [Example 943] | 79%

same assay, conditions: at 1 × 10^-8 M; read-out: % inhibition of farnesyltransferase

Row | SMILES | inhibition at 0.01 µM
35 | CCSC[C@H](CC(C)C)NCc1ccc(C(=O)N[C@@H](CCSC)C(=O)O)c(-c2ccccc2C)c1 [Example 905, N-[4-(N-(1-ethylthio-4-methylpentan-2-yl)aminomethyl)-2-(2-methylphenyl)benzoyl]-methionine] | 86%
36 | CSCC[C@H](NC(=O)c1ccc(CN(C)C(CC2CCCCC2)CC2CCCCC2)cc1-c1ccccc1C)C(=O)O [Example 907, N-[4-(N-(1,3-Dicyclohexylpropan-2-yl)-N-methylaminomethyl)-2-(2-methylphenyl)-benzoyl]methionine] | 79%
37 | CSCC[C@H](NC(=O)c1ccc(CN(C(C)=O)C(CC2CCCCC2)CC2CCCCC2)cc1-c1ccccc1C)C(=O)O [Example 909, N-[4-(N-acetyl-N-(1,3-Dicyclohexylpropan-2-yl)aminomethyl)-2-(2-methylphenyl)-benzoyl]methionine] | 79%
38 | CCCCS(=O)(=O)N(CCC1CCCCC1)Cc1ccc(C(=O)N[C@@H](CCSC)C(=O)O)c(-c2ccccc2C)c1 [Example 916] | 96%
39 | CCCCS(=O)(=O)N(CCCc1ccccc1)Cc1ccc(C(=O)N[C@@H](CCSC)C(=O)O)c(-c2ccccc2C)c1 [Example 927, N-[4-(N-Butanesulfonyl-N-(3-phenylpropyl)aminomethyl)-2-(2-methylphenyl)benzoyl]methionine] | 74%
40 | CCCCN(CCc1ccccc1)Cc1ccc(C(=O)N[C@@H](CCSC)C(=O)O)c(-c2ccccc2C)c1 [Example 928, N-[4-(N-Butyl-N-(2-phenylethyl)aminomethyl)-2-(2-methylphenyl)benzoyl]methionine] | 84%
41 | CCSC[C@H](CC1CCCCC1)N(C)Cc1ccc(C(=O)N[C@@H](CCSC)C(=O)O)c(-c2ccccc2C)c1 [Example 944, N-[4-N-(3-Cyclohexyl-1-ethylthiopropan-2-yl)-N-methylaminomethyl-2-(2-methylphenyl)benzoyl]-methionine hydrochloride salt] | 88%
42 | CCSC[C@H](CC1CCCCC1)N(C=O)Cc1ccc(C(=O)N[C@@H](CCSC)C(=O)O)c(-c2ccccc2C)c1 [Example 946, N-[4-N-(3-Cyclohexyl-1-ethylthiopropan-2-yl)-N-formylaminomethyl-2-(2-methylphenyl)benzoyl]methionine] | 52%
